pIC50: −log10 of the molar value. Where a name gives a salt, the structure may show the parent alone. Read-outs that look alike come from different tables or passages of the source.
Columns and labels:
[1] = target: T1, GST-tagged human Aurora B(AurB)/His-tagged human INCENP complex proteins (Homo sapiens, UniProt Q96GD4); assay: Aurora B inhibitory activity (Method A, IMAP assay kit); type: biochemical; conditions: 40 μM ATP, 25° C., 45 minutes
T1 construct: GST; purchased Carna Biosciences, Inc
Description: An assay development kit for IMAP (registered trademark) (Aurora B), purchased from Carna Biosciences, Inc., was used for phosphorylation reaction, and the phosphorylation of a substrate was detected using the IMAP technology. […] Using the same, the phosphorylation reaction was conducted in accordance with a partially revised protocol attached to the kit, and then the phosphorylation of the substrate was detected using the IMAP technology.
For the phosphorylation reaction, 384 well plate was used, and the reaction volume was 10 μl/well. The composition of the reaction buffer (assay buffer) is comprised of 20 mM of HEPES buffer (pH 7.4), 0.01% Tween-20, and 2 mM of dithiothreitol (DTT). Thereto, AurB/INCENP complex protein, 100 nM of the substrate, and 40 μM of ATP, and 1 mM of magnesium salt were added, and then the reaction was conducted at 25° C. for 45 minutes. Thereafter, in order to terminate and detect the reaction, 30 μl of the IMAP (registered trademark) binding reagent (IMAP Progressive Binding Reagent, R7284) that had been diluted (1:400) in the 1× IMAP binding buffer A (IMAP Progressive Binding Buffer A, 5× stock, R7282) was added to each well.
(§1) The compound to be tested was added to the reaction system such that a dilution series of the compound in DMSO was prepared, and then 0.5 μL of this solution was added for the testing to each well. Each control well was provided by adding 0.5 μL of DMSO to the well in place of the DMSO solution containing the compound to be tested.

[2] = tested on: Human cervical cancer cells (HeLa S3); assay: Cell growth inhibitory effect, WST-8 method; type: cell-based; conditions: HeLa S3, three days incubation, read-out: Cell growth inhibitory effect (HeLaS3) (IC50)
Description: Fetal calf serum (FCS) was purchased from Moregate Biotech, and DMEM medium was purchased from Invitrogen Corp. WST-8 was purchased from Kishida Chemical Co., Ltd.
(§2) Human cervical cancer cells (HeLa S3) were obtained from the American Type Culture Collection (ATCC).
Cells were suspended in a DMEM medium containing 10% FCS, and the cell suspension was dispensed to a 96-well plastic plate at a rate of 750 cells/100 microliters per well. The plate was incubated overnight in 5% CO2-95% air at 37° C. A drug was subjected to graded dilution in dimethylsulfoxide and further diluted with a DMEM medium containing 10% FCS. Then, the dilution was dispensed to the plate on which cells had been disseminated in advance, at a rate of 100 microliters per well. The plate was incubated for further three days in 5% CO2-95% air at 37° C. Cell growth after incubation was measured by the WST-8 method (H. Tominaga, et al., Anal. Commun., 36, 47-50 (1999)). Here, the WST-8 method refers to a method in which 20 microliters of a WST-8 reagent solution is added to each well, incubation is conducted at 37° C. for 60 minutes, the plate is stirred, and the amount of formazan produced is measured by a […] method to determine the inhibitory rate of the drug.

[3] = target: T2, human Aurora A (Homo sapiens, UniProt O14965); assay: Aurora A inhibitory activity (IMAP fluorescence polarization phosphorylation assay); type: biochemical; conditions: 20 μM ATP, 30° C., 120 minutes
T2 construct: His (N); made in house; host or cells: Escherichia coli BL21-CodonPlus(DE3)-RIL
T2 sequence (O14965 1-403): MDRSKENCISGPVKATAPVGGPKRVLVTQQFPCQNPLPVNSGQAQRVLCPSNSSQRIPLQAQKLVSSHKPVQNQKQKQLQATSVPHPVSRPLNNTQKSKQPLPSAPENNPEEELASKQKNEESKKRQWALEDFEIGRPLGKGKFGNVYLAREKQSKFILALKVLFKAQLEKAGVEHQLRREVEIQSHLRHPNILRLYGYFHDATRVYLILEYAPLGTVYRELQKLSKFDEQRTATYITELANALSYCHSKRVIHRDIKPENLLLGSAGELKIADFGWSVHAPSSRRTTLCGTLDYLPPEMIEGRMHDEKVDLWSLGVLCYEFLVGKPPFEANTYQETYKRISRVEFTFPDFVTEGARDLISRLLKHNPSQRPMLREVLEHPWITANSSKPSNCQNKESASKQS
Source text: cDNA of N-terminal His-tagged human Aurora A was integrated into an expression vector, which was then highly expressed in Escherichia coli BL21-CodonPlus(DE3)-RIL cells. The Escherichia coli was harvested and lysed, and then the His-tagged human Aurora A protein was applied onto a nickel chelate column and eluted from the column with imidazole. The active fractions were desalted with a desalting column to give a purified enzyme.
For the phosphorylation reaction, the method by Upstate, Inc. [Kinase Profiler™ Assay Protocols] was referred to, and phosphorylation of the substrate was detected using IMAP® technology (Molecular Devices, Co. Ltd.) (Gaudet E W. et. al, J. Biomol. Screen, 8, 164-175 (2003)). Concretely, the phosphorylation reaction and the detection were carried out as follows:
The phosphorylation reaction was conducted using 384 well plate, and the reaction volume was 10 μl/well. The reaction buffer is comprised of 50 mM Tris-chloride buffer (pH 7.4), 15 mM magnesium acetate, and 0.2 mM ethylenediamine-N,N,N′,N′-tetraacetic acid (EDTA). Thereto, the purified Aurora A protein, 100 nM of the peptide substrate, and 20 μM of adenosine 5′-triphosphate (ATP) were added, and then the reaction was carried out at 30° C. for 120 minutes.
Thereafter, in order to terminate and detect the reaction, 30 μl of the IMAP (registered trademark) binding reagent (IMAP Progressive Binding Reagent, R7284) that had been diluted (1:400) in the 1×IMAP binding buffer A (IMAP Progressive Binding Buffer A, 5× stock, R7282) was added to each well. The solution stood still for 60 minutes in the dark, and then fluorescence polarization was measured using a high-end microplate reader (excitation wavelength: 485 nm; emission wavelength: 520 nm).
as §1, with “in dimethylsulfoxide (DMSO)” for “in DMSO”

[4] = tested on: Human cervical cancer cells (HeLa S3); assay: Effect by combined use of drugs in cells (docetaxel), WST-8 method; type: cell-based; conditions: HeLa S3, three days; for inhibition at 1 µM: compound 1.0 μM alone
Description: Fetal calf serum (FCS) was purchased from Moregate Biotech, DMEM medium from Invitrogen Corp., docetaxel (tradename: Taxere) from Sigma-Aldrich, Inc., and WST-8 from Kishida Chemical Co., Ltd.
as §2
Cells were suspended in a DMEM medium containing 10% FCS, and the cell suspension was dispensed to two 96-well plastic plates at a rate of 750 cells/100 microliters per well. The plates were incubated overnight in 5% CO2-95% air at 37° C. A drug was subjected to graded dilution in dimethylsulfoxide and further diluted with DMSO or with a DMEM medium containing 10% FCS and also containing 0.6 nM docetaxel. Then, the dilutions were each dispensed to one of the plates on which cells had been disseminated in advance, at a rate of 100 microliters per well. The final concentration of docetaxel at this stage was 0.3 nM. Also, the concentrations in the case of sole administration of the compound according to the invention were 0.003, 0.01, 0.03, 0.1, 0.3, 1, 3 and 10 μM. The plates were incubated for further three days in 5% CO2-95% air at 37° C. Cell growth after incubation was measured by the WST-8 method (H. Tominaga, et al., Anal. Commun., 36, 47-50 (1999)). Here, the WST-8 method refers to a method in which 20 microliters of a WST-8 reagent solution is added to each well, incubation is conducted at 37° C. for 60 minutes, the plate is stirred, and the amount of formazan produced is measured by a colorimetric method to determine the inhibitory rate of the drug. The growth inhibitory effects of docetaxel and of the compound according to the invention were determined, with the value obtained in sole treatment of DMSO being defined as 0%.

[5] = compound 0.3 μM + docetaxel 0.3 nM
[6] = Homo sapiens, HeLa S3, 72 h, compound 0.3 μM alone, read-out: Cell growth inhibitory effect by sole administration of the compound of Example (%)
[7] = Homo sapiens, HeLa S3, 72 h, read-out: Cell growth inhibitory effect by sole administration of the compound of Example (%)
[8] = compound 1.0 μM + docetaxel 0.3 nM

T1 sequence (Q96GD4 whole entry): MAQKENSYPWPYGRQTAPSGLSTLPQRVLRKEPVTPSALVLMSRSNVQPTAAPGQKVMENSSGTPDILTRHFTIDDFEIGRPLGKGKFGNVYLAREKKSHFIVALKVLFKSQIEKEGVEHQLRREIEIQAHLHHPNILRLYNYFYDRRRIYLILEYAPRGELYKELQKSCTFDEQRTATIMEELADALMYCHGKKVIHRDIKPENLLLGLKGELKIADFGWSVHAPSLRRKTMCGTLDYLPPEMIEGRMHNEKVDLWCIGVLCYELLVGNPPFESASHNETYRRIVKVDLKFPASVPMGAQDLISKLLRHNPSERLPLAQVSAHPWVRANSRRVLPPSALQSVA
T1 sequence (Q9NQS7 803-916 partner limits assumed): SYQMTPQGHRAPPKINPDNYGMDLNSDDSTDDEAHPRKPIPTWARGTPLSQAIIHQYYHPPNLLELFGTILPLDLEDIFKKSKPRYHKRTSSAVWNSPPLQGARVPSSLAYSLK

Molecule	pIC50 [1]	pIC50 [2]	pIC50 [3]	Cell growth inhibitory effect by combined administration of docetaxel and the compound of Example (%) ([4]; compound 0.1 μM + docetaxel 0.3 nM)	Cell growth inhibitory effect by sole administration of the compound of Example (%) ([4]; compound 0.1 μM alone)	Cell growth inhibitory effect by combined administration of docetaxel and the compound of Example (%) [4, 5] [%]	Cell growth inhibitory effect by sole administration of the compound of Example (%) ([4]; compound 0.3 μM alone)	pIC50 ([2]; Homo sapiens, 72 h)	inhibition at 0.3 µM ([4]; Homo sapiens, 72 h, compound 0.3 μM alone, read-out: Cell growth inhibitory effect by sole administration of the compound of Example (%)) [%]	inhibition at 0.3 µM [4, 6] [%]	inhibition at 1 µM [4, 7] [%]	Cell growth inhibitory effect by combined administration of docetaxel and the compound of Example (%) [4, 8] [%]	inhibition at 3 µM ([4]; Homo sapiens, HeLa S3, 72 h, compound 3.0 μM alone, read-out: Cell growth inhibitory effect by sole administration of the compound of Example (%)) [%]	Cell growth inhibitory effect by combined administration of docetaxel and the compound of Example (%) ([4]; compound 3.0 μM + docetaxel 0.3 nM)
5-(trans-4-(3-chloro-2-fluorophenoxy)-1-((6-(1H-pyrazol-3-ylamino)pyrazin-2-yl)methyl)cyclohexyl)-1,3,4-oxadiazol-2(3H)-one [Example 29]	6.17	6.17	9.72	79.0	11.3	92.9	39.9							
Cl.O=C(O)[C@]1(Cc2cccc(Nc3nccs3)n2)CC[C@@H](Oc2cccc(Cl)c2F)CC1 [Example 1, trans-4-(3-chloro-2-fluorophenoxy)-1-((6-(1,3-thiazol-2-ylamino)pyridin-2-yl)methyl)cyclohexanecarboxylic acid hydrochloride]						84.7		5.71	4.4					
Cl.O=C(O)[C@]1(Cc2cccc(Nc3nccs3)n2)CC[C@@H](Oc2cccc(F)c2F)CC1 [Example 3, trans-4-(2,3-difluorophenoxy)-1-((6-(1,3-thiazol-2-ylamino)pyridin-2-yl)methyl)cyclohexanecarboxylic acid hydrochloride]	7.23		9.92			74.1		5.40		5.4	26.9	90.4		
Cl.O=C(O)[C@]1(Cc2cccc(Nc3nccs3)n2)CC[C@@H](Oc2cccc(C(F)(F)F)c2F)CC1 [Example 4, trans-4-(2-fluoro-3-(trifluoromethyl)phenoxy)-1-((6-(1,3-thiazol-2-ylamino)pyridin-2-yl)methyl)cyclohexanecarboxylic acid hydrochloride]	7.49		9.96			88.6		6.08		22.9	52.9	93.8		
Cl.O=C(O)[C@]1(Cc2cccc(Nc3nccs3)n2)CC[C@@H](Oc2cccc(Cl)c2Cl)CC1 [Example 6, trans-4-(2,3-dichlorophenoxy)-1-((6-(1,3-thiazol-2-ylamino)pyridin-2-yl)methyl)cyclohexanecarboxylic acid hydrochloride]	7.43		10.15			70.0		5.71		7.2	25.6	87.0		
NC(=O)[C@]1(Cc2cccc(Nc3nccs3)n2)CC[C@@H](Oc2cccc(Cl)c2F)CC1 [Example 8, trans-4-(3-chloro-2-fluorophenoxy)-1-((6-(1,3-thiazol-2-ylamino)pyridin-2-yl)methyl)cyclohexanecarboxamide]	6.82		9.27			84.6		5.90		12.2	49	95.0		
O=C(O)[C@]1(Cc2cccc(Nc3cc[nH]n3)n2)CC[C@@H](Oc2cccc(C(F)(F)F)c2F)CC1 [Example 9, trans-4-(2-fluoro-3-(trifluoromethyl)phenoxy)-1-((6-(1H-pyrazol-3-ylamino)pyridin-2-yl)methyl)cyclohexanecarboxylic acid trifluoroacetate]	6.72		9.80					5.66			37.1	91.8	59	95.0

Source: US20100016335A1, “NOVEL AMINOPYRIDINE DERIVATIVES HAVING AURORA A SELECTIVE INHIBITORY ACTION” (priority 2006, published 2010)
